Test results: the NIST ThermoML archive (doi:10.1016/j.jct.2007.04.011)

Tests used:
[1] = 298.15 K, 101.33 kPa, Liquid
[2] = molar heat capacity at constant pressure; conditions: 101.33 kPa, Liquid
[3] = xn = mol fraction of the nth substance listed; conditions: 101 kPa, Liquid, Small sample (50 mg) DSC

CCC(O)CO (stereo unspecified) [1,2-butanediol]
Conditions | mass density [kg/m3]
[1] | 998.408

[2]
Conditions | molar heat capacity at constant pressure [J/K/mol]
288.15 K | 225.51
293.15 K | 228.22
298.15 K | 230.94
303.15 K | 233.64
308.15 K | 236.32
313.15 K | 238.97
318.15 K | 241.59
323.15 K | 244.18
328.15 K | 246.72
333.15 K | 249.2
338.15 K | 251.63
343.15 K | 254
348.15 K | 256.29
353.15 K | 258.5
358.15 K | 260.63

OCCCCO [1,4-butanediol]
Conditions | mass density [kg/m3]
[1] | 1012.75

[2]
Conditions | molar heat capacity at constant pressure [J/K/mol]
293.15 K | 200.39
298.15 K | 203.06
303.15 K | 205.82
308.15 K | 208.65
313.15 K | 211.57
318.15 K | 214.55
323.15 K | 217.61
328.15 K | 220.72
333.15 K | 223.9
338.15 K | 227.12
343.15 K | 230.4
348.15 K | 233.72
353.15 K | 237.07

OCCCCO [1,4-butanediol] + CCCCO
excess molar heat capacity [J/K/mol], [3]
Conditions | x1 = 0.0804 | x1 = 0.1099 | x1 = 0.1826 | x1 = 0.2497 | x1 = 0.3244 | x1 = 0.5919
293.15 K | 0.031 | 0.095 | 0.129 | 0.127 | 0.089 | 0.005
298.15 K | – | 0.096 | 0.011 | 0.093 | 0.016 | –
303.15 K | – | 0.055 | – | 0.025 | – | –

CC(O)C(C)O (stereo unspecified) [2,3-butanediol]
Conditions | mass density [kg/m3]
[1] | 1000.4

[2]
Conditions | molar heat capacity at constant pressure [J/K/mol]
298.15 K | 236.67
303.15 K | 239.28
308.15 K | 241.85
313.15 K | 244.35
318.15 K | 246.82
323.15 K | 249.23
328.15 K | 251.6
333.15 K | 253.91
338.15 K | 256.17
343.15 K | 258.39
348.15 K | 260.55
353.15 K | 262.67

CC(O)CC(C)(C)O (stereo unspecified) [2-methyl-2,4-pentanediol]
Conditions | mass density [kg/m3] | molar heat capacity at constant pressure [J/K/mol]
[1], Vibrating tube method | 918.22 | –
[2], 298.15 K | – | 263.09
[2], 303.15 K | – | 267.1
[2], 308.15 K | – | 271.31
[2], 313.15 K | – | 275.53
[2], 318.15 K | – | 279.94
[2], 323.15 K | – | 284.5
[2], 328.15 K | – | 289.17
[2], 333.15 K | – | 293.9
[2], 338.15 K | – | 298.68
[2], 343.15 K | – | 303.35
[2], 353.15 K | – | 313.68

CCCCO [butan-1-ol]
Conditions | mass density [kg/m3]
[1] | 805.77

[2]
Conditions | molar heat capacity at constant pressure [J/K/mol]
293.15 K | 173.8
298.15 K | 177.1
303.15 K | 180.61
308.15 K | 184.28
313.15 K | 188.02
318.15 K | 192.1
323.15 K | 196.13
328.15 K | 200.4
333.15 K | 204.72
338.15 K | 209.16
343.15 K | 213.57
348.15 K | 218.1
353.15 K | 222.54
